# Laboratory results: US20150105252A1, “SUBSTITUTED PYRAZOLES AS HERBICIDES” (E I DU PONT DE NEMOURS AND COMPANY, priority 2013, published 2015)
# Experiments:
# morningglory [1] = assay: Test A preemergence; assay type: in vivo, Ipomoea spp.; conditions: 0 to 100 scale
# Procedure, shortened: (§1)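 Pre- and postemergence greenhouse test; loam+sand; cpd in non-phytotox. solvent/surfactant; post at 1–2 leaf, 2–10 cm; visual score ~10 d, 0 = none, 100 = complete control.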
# corn = assay: Test A postemergence; assay type: in vivo, Zea mays
# Procedure, shortened: as §1
# sedge, umbrella = assay: Test B flood; assay type: in vivo, Cyperus difformis; conditions: 250 g ai/ha, visual rating on 0 to 100 scale (0 no effect, 100 complete control), 13 to 15 days
# Procedure, shortened: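 Visual ratings on a 0–100 scale, where 0 means no effect and 100 means complete control, were assigned by comparison with controls 13 to 15 days after treatment. Compounds went into paddy water over 2-leaf plants flooded to 3 cm.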
# galium = assay: Test C preemergence; assay type: in vivo, Galium aparine
# Procedure, shortened: (§2)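 Postemergence values come from plants sprayed at the 1- to 4-leaf stage (2–18 cm) in peat moss–vermiculite medium; preemergence values from seeds treated in a loam–sand blend. Both evaluated visually against controls after 13–15 greenhouse days, scale 0–100.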
# crabgrass, large = assay: Test C preemergence; assay type: in vivo, Digitaria sanguinalis
# Procedure, shortened: as §2
# wheat = assay: Test C postemergence; assay type: in vivo, Triticum aestivum; conditions: for Wheat plant response rating / Plant response rating, Wheat: postemergence; for Wheat plant response rating: 62 g ai/ha, scale 0 to 100
# Procedure, shortened: as §2
# foxtail, giant = assay: Test C postemergence; assay type: in vivo, Setaria faberii; conditions: for Foxtail, Giant plant response rating: scale 0 to 100
# Procedure, shortened: as §2
# morningglory [2] = assay: Test C postemergence; assay type: in vivo, Ipomoea coccinea; conditions: for Morningglory plant response rating: scale 0 to 100
# Procedure, shortened: as §2
# pigweed = assay: Test C postemergence; assay type: in vivo, Amaranthus retroflexus; conditions: for Pigweed plant response rating: scale 0 to 100
# Procedure, shortened: as §2
# ragweed = assay: Test C postemergence; assay type: in vivo, Ambrosia elation; conditions: for Ragweed plant response rating / Plant response rating, Ragweed: postemergence; for Ragweed plant response rating: 62 g ai/ha, scale 0 to 100
# Procedure, shortened: as §2
# oat, wild = assay: Test C postemergence; assay type: in vivo, Avena fatua; conditions: for Oat, Wild plant response rating: scale 0 to 100
# Procedure, shortened: as §2
# chickweed = assay: Test C postemergence; assay type: in vivo, Stellaria media; conditions: for Chickweed plant response rating: scale 0 to 100
# Procedure, shortened: as §2
# [3] = Preemergence, 500 g ai/ha, 0 no effect, 100 complete control
# [4] = preemergence, 125 g ai/ha, visual injury, approx. 10 days
# [5] = Postemergence, 500 g ai/ha, visual rating after approx. 10 days, 0 to 100 scale (0 no effect, 100 complete control)
# [6] = postemergence, 125 g ai/ha, about 10 days, visual rating on 0 to 100 scale (0 no effect, 100 complete control)
# [7] = preemergence, 31 g ai/ha, scale 0 to 100 (0 no effect, 100 complete control), 13 to 15 days
# [8] = preemergence, 62 g ai/ha, 13 to 15 days, scale 0 to 100, 0 = no effect, 100 = complete control
# [9] = preemergence, 125 g ai/ha, scale 0 to 100, 0 is no effect, 100 is complete control
# [10] = Postemergence, 31 g ai/ha, visually evaluated after 13 to 15 days
# [11] = 250 g ai/ha, scale 0 to 100 (0 no effect, 100 complete control)
# [12] = 125 g ai/ha, scale 0 to 100, 0 no effect, 100 complete control
# [13] = postemergence, 250 g ai/ha, scale 0 to 100 (0 no effect, 100 complete control)
# [14] = postemergence, 125 g ai/ha, scale 0 to 100, 0 no effect, 100 complete control
# [15] = Preemergence, 16 g ai/ha, scale 0 to 100
structure (smiles),measurement,setting,value
CCc1cc(C(=O)NC2CC2)nn1Cc1ccnc(C(F)(F)F)c1 [Compound 76],Morningglory plant response rating,morningglory [1]; [3],100
same,Morningglory plant response rating,morningglory [1]; [4],70
same,Corn plant response rating,corn; [5],90
same,Corn plant response rating,corn; [6],80
same,"Plant response rating, Sedge, Umbrella","sedge, umbrella",80
same,"Plant response rating (scale of 0 to 100), Galium","galium; Preemergence, 250 g ai/ha",100
same,Galium plant response rating,galium; [7],98
same,"Plant response rating, Galium",galium; [8],100
same,Galium plant response rating,galium; [9],100
same,"Plant response rating (scale of 0 to 100), Crabgrass, Large","crabgrass, large; Preemergence, 250 g ai/ha",100
same,"Crabgrass, Large plant response rating","crabgrass, large; [7]",100
same,"Plant response rating, Crabgrass, Large","crabgrass, large; [8]",100
same,"Crabgrass, Large plant response rating","crabgrass, large; [9]",100
same,"Plant response rating (scale of 0 to 100 where 0 is no effect and 100 is complete control), Wheat",wheat; [10],0
same,Wheat plant response rating,wheat,5
same,"Plant response rating, Wheat",wheat; [11],5
same,"Plant response rating, Wheat",wheat; [12],5
same,"Plant response rating (scale of 0 to 100 where 0 is no effect and 100 is complete control), Foxtail, Giant","foxtail, giant; [10]",20
same,"Foxtail, Giant plant response rating","foxtail, giant; postemergence, 62 g ai/ha",20
same,"Plant response rating, Foxtail, Giant","foxtail, giant; [13]",85
same,"Plant response rating, Foxtail, Giant","foxtail, giant; [14]",65
same,"Plant response rating (scale of 0 to 100 where 0 is no effect and 100 is complete control), Morningglory",morningglory [2]; [10],75
same,Morningglory plant response rating,"morningglory [2]; postemergence, 62 g ai/ha",75
same,"Plant response rating, Morningglory",morningglory [2]; [13],98
same,"Plant response rating, Morningglory",morningglory [2]; [14],85
same,"Plant response rating (scale of 0 to 100 where 0 is no effect and 100 is complete control), Pigweed",pigweed; [10],60
same,Pigweed plant response rating,"pigweed; postemergence, 62 g ai/ha",60
same,"Plant response rating, Pigweed",pigweed; [13],98
same,"Plant response rating, Pigweed",pigweed; [14],90
same,"Plant response rating (scale of 0 to 100 where 0 is no effect and 100 is complete control), Ragweed",ragweed; [10],55
same,Ragweed plant response rating,ragweed,75
same,"Plant response rating, Ragweed",ragweed; [11],90
same,"Plant response rating, Ragweed",ragweed; [12],75
same,"Plant response rating (scale of 0 to 100 where 0 is no effect and 100 is complete control), Oat, Wild","oat, wild; [10]",5
same,"Oat, Wild plant response rating","oat, wild; postemergence, 62 g ai/ha",5
same,"Plant response rating, Oat, Wild","oat, wild; [13]",25
same,"Plant response rating, Oat, Wild","oat, wild; [14]",5
same,"Plant response rating (scale of 0 to 100 where 0 is no effect and 100 is complete control), Chickweed",chickweed; [10],50
same,Chickweed plant response rating,"chickweed; postemergence, 62 g ai/ha",80
same,"Plant response rating, Chickweed",chickweed; [13],85
same,"Plant response rating, Chickweed",chickweed; [14],80
CCCNC(=O)c1cc(CC)n(Cc2ccnc(C(F)(F)F)c2)n1 [Compound 75],Morningglory plant response rating,morningglory [1]; [3],90
same,Morningglory plant response rating,morningglory [1]; [4],90
same,Corn plant response rating,corn; [5],90
same,Corn plant response rating,corn; [6],80
same,"Plant response rating, Sedge, Umbrella","sedge, umbrella",85
same,"Plant response rating, Galium",galium; [15],90
same,Galium plant response rating,galium; [7],100
same,"Plant response rating, Galium",galium; [8],100
same,Galium plant response rating,galium; [9],100
same,"Plant response rating, Crabgrass, Large","crabgrass, large; [15]",100
same,"Crabgrass, Large plant response rating","crabgrass, large; [7]",100
same,"Plant response rating, Crabgrass, Large","crabgrass, large; [8]",100
same,"Crabgrass, Large plant response rating","crabgrass, large; [9]",100
same,"Plant response rating (scale of 0 to 100), Wheat","wheat; Postemergence, 16 g ai/ha",0
same,Wheat plant response rating,wheat,5
same,"Plant response rating, Wheat",wheat; [12],5
same,"Plant response rating (scale of 0 to 100), Foxtail, Giant","foxtail, giant; Postemergence, 16 g ai/ha",15
same,"Foxtail, Giant plant response rating","foxtail, giant; Postemergence, 31 g ai/ha",20
same,"Foxtail, Giant plant response rating","foxtail, giant; postemergence, 62 g ai/ha",25
same,"Plant response rating, Foxtail, Giant","foxtail, giant; [14]",50
same,"Plant response rating (scale of 0 to 100), Morningglory","morningglory [2]; Postemergence, 16 g ai/ha",25
same,Morningglory plant response rating,"morningglory [2]; Postemergence, 31 g ai/ha",75
same,Morningglory plant response rating,"morningglory [2]; postemergence, 62 g ai/ha",80
same,"Plant response rating, Morningglory",morningglory [2]; [14],98
same,"Plant response rating (scale of 0 to 100), Pigweed","pigweed; Postemergence, 16 g ai/ha",40
same,Pigweed plant response rating,"pigweed; Postemergence, 31 g ai/ha",40
same,Pigweed plant response rating,"pigweed; postemergence, 62 g ai/ha",60
same,"Plant response rating, Pigweed",pigweed; [14],80
same,"Plant response rating (scale of 0 to 100), Ragweed","ragweed; Postemergence, 16 g ai/ha",40
same,Ragweed plant response rating,ragweed,70
same,"Plant response rating, Ragweed",ragweed; [12],85
same,"Plant response rating (scale of 0 to 100), Oat, Wild","oat, wild; Postemergence, 16 g ai/ha",5
same,"Oat, Wild plant response rating","oat, wild; Postemergence, 31 g ai/ha",5
same,"Oat, Wild plant response rating","oat, wild; postemergence, 62 g ai/ha",5
same,"Plant response rating, Oat, Wild","oat, wild; [14]",25
same,"Plant response rating (scale of 0 to 100), Chickweed","chickweed; Postemergence, 16 g ai/ha",65
same,Chickweed plant response rating,"chickweed; Postemergence, 31 g ai/ha",65
same,Chickweed plant response rating,"chickweed; postemergence, 62 g ai/ha",70
same,"Plant response rating, Chickweed",chickweed; [14],85
